Experimental data from patent US9394371B2, “Antibody-mediated disruption of quorum sensing in bacteria” (The Scripps Research Institute, priority 2007, dated 2016).

Test system: S. aureus RN4850
Type: cell-based

Sequence: YSTCYFIM (SEQ ID NO: 123) (thiolactone cyclisation; listed as Staphylococcus aureus) [AIP-4, native S. aureus group IV autoinducing peptide, synthesized, reference compound]
- α-hemolysin expression after adding synthetic AIP-4 to AP4-24H11: fully restored expression of α-hemolysin
